What was measured:
[1] = Equilibrium study: stability constants of the Mn(II) complexes and calculated pMn; format: physicochemical; conditions: 25° C., 0.15M NaCl; for pMn: calculated from equilibrium constants at pH = 7.4 and cMn = cL = 10^−5 M
Procedure: (§1) During the physico-chemical studies of BP2AM^Pyp and BP2AM^Pro compounds prepared according to Example 1 and 2, their protonation constants, as well as equilibrium behaviour and kinetic inertness of their Mn(II) complexes was studied in detail, and the characteristic relaxivity values of the complexes were determined in the presence and absence of HSA (Human Serum Albumin), at 25 and 37° C. and physiological pH. All studies were performed in the presence of 0.15 M NaCl, the same concentration as that of the electrolyte under physiological conditions.
(§2) The results of equilibrium study are summarized in Table 1, in addition to the protonation constants, total basicity of ligands and stability constants of their Mn(II) complexes, the pMn value calculated for complexes are also represented in the table.
Based on the pMn values presented in Table 1 (calculated using the equilibrium constants at pH=7.4 and cMn=cL=10^−5 M), it can be concluded that the studied Mn(II) complexes are formed in 100% at physiological pH, which is an essential aspect of the practical use.

[2] = Equilibrium study: protonation constants of the ligands; format: physicochemical; conditions: 25° C., 0.15M NaCl
Procedure: as §1, §2

[3] = literature values, stated as under the same conditions; cited from earlier work
[4] = cited from earlier work

logKMnL (stability constant of Mn(II) complex) [1]	pMn [1]	logK1 (protonation constant) [2]	logK2 (protonation constant) [2]	logK3 (protonation constant) [2]	logK4 (protonation constant) [2]	ΣlogKi^H (total basicity) [2]	SMILES	r1 relaxivity [3] [mM⁻¹ s⁻¹]	Gd(III) ion released, calculated on the basis of experiments ([4]; 25° C.) [%]	Gd(III) ion released during in vivo dissociation ([4]; 37° C.) [%]
11.47(5)	7.51	8.83(1)	3.89(2)	3.05(2)	2.39(2)	18.16	O=C(O)C1CCCN1C(=O)CN1Cc2cccc(n2)CN(CC(=O)N2CCCC2C(=O)O)Cc2cccc(n2)C1 (stereo not shown) [BP2AM^Pro]			
13.58(1)	8.19	9.57(2)	2.99(2)			12.56	O=C(CN1Cc2cccc(n2)CN(CC(=O)N2CCCCC2)Cc2cccc(n2)C1)N1CCCCC1 [BP2AM^Pyp, 2,11-bis[2-oxo-2-(piperidine-1-il)-ethyl]-2,11-diaza[3.3](2,6)-pyridinophane]			
							CNC[C@H](O)[C@@H](O)[C@H](O)[C@H](O)CO.O=C([O-])CN1CCN(CC(=O)[O-])CCN(CC(=O)O)CCN(CC(=O)[O-])CC1.[Gd+3] [DOTAREM]	3.83		
							CNC[C@H](O)[C@@H](O)[C@H](O)[C@H](O)CO.CNC[C@H](O)[C@@H](O)[C@H](O)[C@H](O)CO.O=C([O-])CN(CCN(CC(=O)[O-])CC(=O)O)CCN(CC(=O)[O-])CC(=O)O.[Gd+3] [MAGNEVIST]	4.02	0.5	2.2

From patent publication US10968224B2, “2,11-diaza-[3.3](2,6)pyridinophane compounds and their application as ligands of essential metal ion based MRI contrast agents and 52MN based PET contrast agents” (DEBRECENI EGYETEM, priority 2015, dated 2021)
